Reference: patent US12054501B2, “Compositions and methods for inhibiting arginase activity” (Precision Pharmaceuticals Inc., priority 2016, dated 2024)
“Also recorded” adds a separate entry of the source.

What was measured:
[1] = Moisture sorption/desorption isotherm (TGA study, humidity uptake); type: physicochemical
Description: In the TGA study, a weighted amount of compound 10e was treated with increasing amounts of water vapor (increased humidity) and the impact of humidity on the weight of the sample was evaluated.

[2] = tested on: Lewis Lung Carcinoma cells; assay: Lewis Lung Carcinoma efficacy study (tumor volume over time); type: in vivo; conditions: single agent, dosed orally twice daily at 50, 100 or 200 mg/kg; C57BL/6 mice implanted with Lewis Lung Carcinoma cells; relative to control
Description: Female C57.Bl/6 mice (n=40) were implanted subcutaneously with 1×10^6 Lewis Lung Carcinoma cells suspended in PBS. The day following implantation, mice were randomized into 4 groups of n=10 mice to receive the following treatments dosed orally twice daily until study end: 1) Vehicle (water); 2) Compound 10 at 50 mg/kg formulated in water; 3) Compound 10 at 100 mg/kg formulated in water; or 4) Compound 10 at 200 mg/kg formulated in water. Tumors were measured three times per week with digital calipers and tumor volumes calculated with the following formula: tumor volume (mm^3)=(a×b^2/2) where ‘b’ is the smallest diameter and ‘a’ is the largest perpendicular diameter. ***P-value <0.001, ****P-value <0.0001 (Two-sided T-test).

[3] = Hydrolysis of the ethanolate in water (NMR in D2O, HPLC-MS); type: physicochemical; conditions: hydrolysis to the open free boronic acid form, compound 10
Description: The rapid conversion of compound 10e to compound 10 in water was confirmed by the similarity of a spectrum of 10e in D2O to a spectrum of 10 in D2O. When a sample of compound 10e was dissolved in D2O and the spectra immediately recorded (elapsed time <5 minutes), the spectra observed is identical to a spectra of compound 10 (the free boronic acid) plus ethanol (1:1 ratio). The spectrum of 10e in D2O was the same at 5 minutes and one hour after sample preparation, indicating the transformation was rapid and complete after a few minutes.
The NMR spectra (D2O) labeled A is compound 10 (free base) prepared from 11 as described in Example 2. The NMR spectra (D2O) labeled B is an analytical sample of compound 10e prepared as described above. The NMR spectra (D2O) labeled C is the sample from spectra B that has been lyophilized and redissolved in D2O.
Upon dissolution in 1:1 water/acetonitrile and immediate injection into an HPLC system, only a single peak is observed. The mass of this peak is consistent with compound 10.

| hysteresis of sorption and desorption isotherms [1] | observed moisture uptake ([1]; at 90% relative humidity (RH)) | stability under physiological conditions or any other aqueous conditions [3] | SMILES | hygroscopicity ([1]; as humidity is increased) | tumor growth (tumor volume over time) [2] |
| --- | --- | --- | --- | --- | --- |
| minimal hysteresis | over 70% |  | C[C@H](N)C(=O)N1C[C@H](CCCB(O)O)[C@](N)(C(=O)O)C1 [Compound 10] | absorbs increasing amounts of water as the humidity increases; also recorded: hygroscopic | slows tumor growth relative to control |
|  |  | rapidly hydrolyzes | CCOB1CCC[C@H]2CN(C(=O)[C@H](C)N)C[C@@]2(N)C(=O)O1 [Compound 10e, (6aS,9aR)-8-(L-alanyl)-9a-amino-3-ethoxyoctahydro-[1,2]oxaborocino[6,7-c]pyrrol-1(3H)-one] |  |  |
